For 27 compounds, MIC results are on record in ChEMBL document CHEMBL4393657, “Tetrazole hybrids and their antifungal activities” (2019).

Assay type in all cases: functional
Test [1] concerns Cryptococcus neoformans. The experiment in a line: Antifungal activity against Cryptococcus neoformans LA314 assessed as reduction in fungal cell growth incubated for 48 hrs by broth microdilution method. Particulars: LA314, 48 h.
Test [2] has as its system Nakaseomyces glabratus. The experiment in a line: Antifungal activity against Candida glabrata assessed as reduction in fungal cell growth incubated for 48 hrs by broth microdilution method.
Test [3] concerns Candida parapsilosis. As to the kind of experiment: Antifungal activity against Candida parapsilosis ATCC 22019 assessed as reduction in fungal cell growth incubated for 48 hrs by broth microdilution method. Particulars: Lodderomyces parapsilosis, ATCC 22019, 48 h. A general note: In broth dilution the organism is exposed to a series of concentrations in liquid medium.
For test [4], the system named is Pichia kudriavzevii. As to the kind of experiment: Antifungal activity against Candida krusei assessed as reduction in fungal cell growth incubated for 48 hrs by broth microdilution method.
The subject of test [5] is Candida albicans. The experiment in a line: Antifungal activity against Candida albicans assessed as reduction in fungal cell growth incubated for 48 hrs by broth microdilution method.
The test system of test [6] is Candida tropicalis. The experiment in a line: Antifungal activity against Candida tropicalis assessed as reduction in fungal cell growth incubated for 48 hrs by broth microdilution method.
Test [7] deals with Aspergillus niger. As to the kind of experiment: Antifungal activity against Aspergillus niger assessed as reduction in fungal cell growth incubated for 72 hrs by broth microdilution method.

≈ marks a conversion by molar mass, not a printed value.

Usually MIC stands for the smallest concentration in the dilution series that meets the test's criterion for growth inhibition. For the compound `C[C@H](n1nnc(CCN2CCN(c3ccc([N+](=O)[O-])cc3)CC2)n1)[C@](O)(Cn1cncn1)c1ccc(F)cc1F`, the MIC in test [1], in test [2], in test [3], in test [4], in test [5] and in test [6] was 0.25 to 16 µg/mL (≈ 0.451 to 28.9 µM) throughout. The minimum inhibitory concentration (MIC) in test [7] lay in the range of 0.25 to 16 µg/mL (≈ 0.451 to 28.9 µM).

On to `C[C@H](n1nnnc1CCN1CCN(Cc2ccccc2)CC1)[C@](O)(Cn1cncn1)c1ccc(F)cc1F`, for which the MIC in test [1], in test [2], in test [3], in test [4], in test [5] and in test [6] was 0.12 to 16 µg/mL (≈ 0.229 to 30.6 µM) each time. The minimal inhibitory concentration (MIC) in test [7] lay within 0.12 to 16 µg/mL (≈ 0.229 to 30.6 µM).

With `CC(n1nnnc1CCN1CCN(c2cccc(Cl)c2)CC1)C(O)(Cn1cncn1)c1ccc(F)cc1F` (centres undefined), the MIC in test [1], in test [2], in test [3], in test [4], in test [5] and in test [6] was 0.5 to 16 µg/mL (≈ 0.919 to 29.4 µM) throughout. Moreover, in test [7], the minimal inhibitory concentration (MIC) is 0.5 to 16 µg/mL (≈ 0.919 to 29.4 µM).

For the compound `CCCCOc1ccccc1N1CCN(CCc2nnn(CC(O)(Cn3cncn3)c3ccc(F)cc3F)n2)CC1` (centres undefined), the MIC in test [1], in test [2], in test [3], in test [4], in test [5] and in test [6] was 1 to 16 µg/mL (≈ 1.76 to 28.2 µM) each time. Further, the MIC in test [7] fell in the range of 1 to 16 µg/mL (≈ 1.76 to 28.2 µM).

As to `CC(n1nnnc1CCN1CCN(c2c(Cl)cccc2Cl)CC1)C(O)(Cn1cncn1)c1ccc(F)cc1F` (centres undefined), the MIC in test [1], in test [2], in test [3], in test [4], in test [5] and in test [6] was 0.5 to 16 µg/mL (≈ 0.864 to 27.7 µM) throughout. The MIC in test [7] lay in the range of 0.5 to 16 µg/mL (≈ 0.864 to 27.7 µM).

In the case of `OC(Cn1cncn1)(Cn1nnnc1CCN1CCN(c2cccc(Cl)c2)CC1)c1ccc(F)cc1F` (centres undefined), the MIC in test [1], in test [2], in test [3], in test [4], in test [5] and in test [6] was 0.5 to 16 µg/mL (≈ 0.943 to 30.2 µM) each time. The MIC in test [7] fell in the range of 0.5 to 16 µg/mL (≈ 0.943 to 30.2 µM).

Consider `O=[N+]([O-])c1ccc(N2CCN(CCc3nnn(CC(O)(Cn4cncn4)c4ccc(F)cc4F)n3)CC2)cc1` (centres undefined), for which the MIC in test [1], in test [2], in test [3], in test [4], in test [5] and in test [6] was 1 to 16 µg/mL (≈ 1.85 to 29.6 µM) in each case. Besides, in test [7], the MIC lay in the range of 1 to 16 µg/mL (≈ 1.85 to 29.6 µM).

As for `C[C@H](n1nnnc1CCN1CCN(c2c(Cl)cccc2Cl)CC1)[C@](O)(Cn1cncn1)c1ccc(F)cc1F`, the MIC in test [1], in test [2], in test [3], in test [4], in test [5] and in test [6] was 0.12 to 16 µg/mL (≈ 0.207 to 27.7 µM) each time. Further, the MIC in test [7] is 0.12 to 16 µg/mL (≈ 0.207 to 27.7 µM).

With `CC(n1nnc(CCN2CCN(C(c3ccccc3)c3ccccc3)CC2)n1)C(O)(Cn1cncn1)c1ccc(F)cc1F` (centres undefined), the MIC in test [1], in test [2], in test [3], in test [4], in test [5] and in test [6] was 1 to 16 µg/mL (≈ 1.67 to 26.7 µM) throughout. The MIC in test [7] fell in the range of 1 to 16 µg/mL (≈ 1.67 to 26.7 µM).

For `CC(n1nnc(CCN2CCN(c3ccc([N+](=O)[O-])cc3)CC2)n1)C(O)(Cn1cncn1)c1ccc(F)cc1F` (centres undefined), the MIC in test [1], in test [2], in test [3], in test [4], in test [5] and in test [6] was 1 to 16 µg/mL (≈ 1.8 to 28.9 µM) in each case. Also, in test [7], the minimal inhibitory concentration (MIC) fell in the range of 1 to 16 µg/mL (≈ 1.8 to 28.9 µM).

With `C[C@H](n1nnc(CCN2CCN(c3ccccc3Cl)CC2)n1)[C@](O)(Cn1cncn1)c1ccc(F)cc1F`, the minimum inhibitory concentration (MIC) in test [1], in test [2], in test [3], in test [4], in test [5] and in test [6] was 0.25 to 16 µg/mL (≈ 0.46 to 29.4 µM) throughout. For the same compound, the MIC in test [7] lay in the range of 0.25 to 16 µg/mL (≈ 0.46 to 29.4 µM).

As for `COc1ccccc1N1CCN(CCc2nnn(C(C)C(O)(Cn3cncn3)c3ccc(F)cc3F)n2)CC1` (centres undefined), the MIC in test [1], in test [2], in test [3], in test [4], in test [5] and in test [6] was 1 to 16 µg/mL (≈ 1.85 to 29.7 µM) each time. The MIC in test [7] lay in the range of 1 to 16 µg/mL (≈ 1.85 to 29.7 µM).

On to `OC(Cn1cncn1)(Cn1nnc(CCN2CCN(c3ccccc3)CC2)n1)c1ccc(F)cc1F` (centres undefined), for which the minimal inhibitory concentration (MIC) in test [1], in test [2], in test [3], in test [4], in test [5] and in test [6] was 1 to 16 µg/mL (≈ 2.02 to 32.3 µM) in each case. Further, the MIC in test [7] fell in the range of 1 to 16 µg/mL (≈ 2.02 to 32.3 µM).

For the compound `O=[N+]([O-])c1ccc(N2CCN(CCc3nnnn3CC(O)(Cn3cncn3)c3ccc(F)cc3F)CC2)cc1` (centres undefined), the MIC in test [1], in test [2], in test [3], in test [4], in test [5] and in test [6] was 0.5 to 16 µg/mL (≈ 0.925 to 29.6 µM) each time. Further, the minimum inhibitory concentration (MIC) in test [7] fell in the range of 0.5 to 16 µg/mL (≈ 0.925 to 29.6 µM).

Take `COc1ccc(N2CCN(CCc3nnn([C@@H](C)[C@](O)(Cn4cncn4)c4ccc(F)cc4F)n3)CC2)cc1`: the MIC in test [1], in test [2], in test [3], in test [4], in test [5] and in test [6] was 0.25 to 16 µg/mL (≈ 0.463 to 29.7 µM) in each case. The MIC in test [7] lay in the range of 0.25 to 16 µg/mL (≈ 0.463 to 29.7 µM).

Turning to `OC(Cn1cncn1)(Cn1nnnc1CCN1CCN(c2ccc(Cl)cc2)CC1)c1ccc(F)cc1F` (centres undefined), the MIC in test [1], in test [2], in test [3], in test [4], in test [5] and in test [6] was 0.5 to 16 µg/mL (≈ 0.943 to 30.2 µM) in each case. In addition, the MIC in test [7] fell in the range of 0.5 to 16 µg/mL (≈ 0.943 to 30.2 µM).

As to `C[C@H](n1nnc(CCN2CCN(C(c3ccccc3)c3ccccc3)CC2)n1)[C@](O)(Cn1cncn1)c1ccc(F)cc1F`, the minimal inhibitory concentration (MIC) in test [1], in test [2], in test [3], in test [4], in test [5] and in test [6] was 0.25 to 16 µg/mL (≈ 0.417 to 26.7 µM) in each case. Moreover, in test [7], the MIC was 0.25 to 16 µg/mL (≈ 0.417 to 26.7 µM).

`CCCCOc1ccccc1N1CCN(CCc2nnn(C(C)C(O)(Cn3cncn3)c3ccc(F)cc3F)n2)CC1` (centres undefined): the MIC in test [1], in test [2], in test [3], in test [4], in test [5] and in test [6] was 1 to 16 µg/mL (≈ 1.72 to 27.5 µM) each time. In test [7], the MIC was 1 to 16 µg/mL (≈ 1.72 to 27.5 µM).

Regarding `COc1ccc(N2CCN(CCc3nnn(CC(O)(Cn4cncn4)c4ccc(F)cc4F)n3)CC2)cc1` (centres undefined), the MIC in test [1], in test [2], in test [3], in test [4], in test [5] and in test [6] was 1 to 16 µg/mL (≈ 1.9 to 30.4 µM) each time. Also, the MIC in test [7] is 1 to 16 µg/mL (≈ 1.9 to 30.4 µM).

With `OC(Cn1cncn1)(Cn1nnnc1CCN1CCN(c2ccccc2Cl)CC1)c1ccc(F)cc1F` (centres undefined), the MIC in test [1], in test [2], in test [3], in test [4], in test [5] and in test [6] was 0.5 to 16 µg/mL (≈ 0.943 to 30.2 µM) in each case. Moreover, the MIC in test [7] was 0.5 to 16 µg/mL (≈ 0.943 to 30.2 µM).

`COc1ccccc1N1CCN(CCc2nnnn2C(C)C(O)(Cn2cncn2)c2ccc(F)cc2F)CC1` (centres undefined): the minimal inhibitory concentration (MIC) in test [1], in test [2], in test [3], in test [4], in test [5] and in test [6] was 0.5 to 16 µg/mL (≈ 0.927 to 29.7 µM) each time. Also, in test [7], the minimal inhibitory concentration (MIC) was 0.5 to 16 µg/mL (≈ 0.927 to 29.7 µM).

With `C[C@H](n1nnc(CCN2CCN(c3ccc(F)cc3)CC2)n1)[C@](O)(Cn1cncn1)c1ccc(F)cc1F`, the MIC in test [1], in test [2], in test [3], in test [4], in test [5] and in test [6] was 0.25 to 16 µg/mL (≈ 0.474 to 30.3 µM) in each case. Moreover, the MIC in test [7] lay within 0.25 to 16 µg/mL (≈ 0.474 to 30.3 µM).

Consider `OC(Cn1cncn1)(Cn1nnnc1CCN1CCN(c2ccc(F)cc2)CC1)c1ccc(F)cc1F` (centres undefined), for which the MIC in test [1], in test [2], in test [3], in test [4], in test [5] and in test [6] was 0.5 to 16 µg/mL (≈ 0.974 to 31.2 µM) throughout. Moreover, the MIC in test [7] lay in the range of 0.5 to 16 µg/mL (≈ 0.974 to 31.2 µM).

Take `CC(n1nnc(CCN2CCN(c3ccccc3Cl)CC2)n1)C(O)(Cn1cncn1)c1ccc(F)cc1F` (centres undefined): the MIC in test [1], in test [2], in test [3], in test [4], in test [5] and in test [6] was 1 to 16 µg/mL (≈ 1.84 to 29.4 µM) throughout. In addition, the MIC in test [7] was 1 to 16 µg/mL (≈ 1.84 to 29.4 µM).

Take `C[C@H](n1nnc(CCN2CCN(c3ccccc3)CC2)n1)[C@](O)(Cn1cncn1)c1ccc(F)cc1F`: the MIC in test [1], in test [2], in test [3], in test [4], in test [5] and in test [6] was 0.25 to 16 µg/mL (≈ 0.491 to 31.4 µM) throughout. Also, the MIC in test [7] was in the range of 0.25 to 16 µg/mL (≈ 0.491 to 31.4 µM).

For the compound `COc1ccc(N2CCN(CCc3nnn(C(C)C(O)(Cn4cncn4)c4ccc(F)cc4F)n3)CC2)cc1` (centres undefined), the MIC in test [1], in test [2], in test [3], in test [4], in test [5] and in test [6] was 1 to 16 µg/mL (≈ 1.85 to 29.7 µM) each time. For the same compound, the MIC in test [7] lay within 1 to 16 µg/mL (≈ 1.85 to 29.7 µM).

Take `COc1ccccc1N1CCN(CCc2nnn(CC(O)(Cn3cncn3)c3ccc(F)cc3F)n2)CC1` (centres undefined): the MIC in test [1], in test [2], in test [3], in test [4], in test [5] and in test [6] was 1 to 16 µg/mL (≈ 1.9 to 30.4 µM) in each case. Besides, in test [7], the MIC lay in the range of 1 to 16 µg/mL (≈ 1.9 to 30.4 µM).
